The target in one assay is T1, IGFBP-5 (Homo sapiens, UniProt P24593).
T1 construct: His-tag (N); T7-tag (pET-28a construct only) (N); made in house; host or cells: E. coli BL21
The assay can be described thus: Detection of ligand binding by 15N-HSQC NMR titration. The procedure:
Ligand binding was detected by acquiring ^15N—HSQC spectra. All NMR spectra were acquired at 300 K on Bruker DRX600 spectrometer. The samples for NMR spectroscopy were concentrated and dialyzed against PBS buffer. Typically, the sample concentration was varied from 0.3 to 1.0 mM. Before measuring, the sample was centrifuged in order to sediment aggregates and other macroscopic particles. 450 μl of the protein solution were mixed with 50 μl of D2O (5-10%) and transferred to an NMR sample tube. The stock solutions of compounds were 100 mM either in water or in perdeuterated DMSO. pH was maintained constant during the whole titration. The binding was monitored by observation of the changes in the ^15N—HSQC spectrum. Dissociation constants were obtained by monitoring the chemical shift changes of the backbone amide of several amino acid residues (Table 9) as a function of ligand concentration. Data were fit using a single binding site model.

The target in assay [1] is T2, complex of IGFBP-5 and IGF-I (Homo sapiens, UniProt P24593). The experiment in a line: Release of IGF-I from the complex with IGFBP-5 measured by IGF-R activation (autophosphorylation) in NIH 3T3 cells. The class given is cell-based. As to conditions: FIG. 8. The source says:
Kalus, W., et al., in EMBO J. 17 (1998) 6558-6572, describe the inhibition of the activation and autophosphorylation of the IGF-R by IGF-I in the presence of IGFBP-5. This assay was used to further investigate the release of IGF-I from the inhibitory complex with IGFBP-5 by compound 3. Binding of compound 3 to IGFBP-5 and dissociation of the complex of the binding protein with IGF-I should result in an activation and autophosphorylation of the IGF-R in the presence of IGFBP-5.
Confluent monolayers of the NIH 3T3 cells stably expressing human IGF-R in 3.5 cm dishes were starved in DMEM containing 0.5% dialysed fetal calf serum. After 48 h, cells were incubated without any hormone or with 10 nM IGF-I. Samples were preincubated with 100 nM IGFBP-5 and increasing concentrations of compound 3 from 0 to 50 μM at room temperature for 1 h. After a 10 min stimulation at 37° C., the medium was removed and cells were lysed with 250 μl of lysing buffer (20 mM HEPES pH 7.5, 150 mM NaCl, 10% glycerol, 1% NP-40, 1.5 mM MgCl 2, 1 mM EGTA), 10 mM sodium orthovanadate, and protease inhibitor cocktail Complete (Roche Molecular Biochemicals) for 10 min on ice. […] The protein concentration of the supernatant was determined using the BCA kit from Pierce according to the manufacturer's instructions. […]

For assay [2], the target named is T2, complex of IGFBP-5 and IGF-I. The experiment in a line: Release of IGF-I from the complex with IGFBP-5 measured by 125I-IGF-I binding to IGF-R expressing NIH 3T3 cells. The class given is cell-based. The note with it: 10 or 100 nM IGFBP-5, 5 pM 125I-IGF-I, FIG. 7. The method, then:
Kalus, W., et al., in EMBO J. 17 (1998) 6558-6572, describe the inhibition of the binding of IGF-I to IGF-R expressing NIH 3T3 cells by formation of an inhibitory complex. This assay was used to investigate the release of IGF-I from the inhibitory complex with IGFBP-5.
NIH 3T3 cells stably expressing human IGF-R were grown in culture dishes in Dulbecco's modified Eagle's medium (DMEM) containing 10% fetal calf serum. Cells were washed carefully with PBS and incubated with 5 ml of 50 mM EDTA in PBS for 45 min. Cells were removed from the plate, washed once with PBS and once with binding buffer (100 mM HEPES pH 7.6, 120 mM NaCl, 5 mM KCl, 1.2 mM MgSO 4, 1 mM EDTA, 10 mM glucose, 15 mM sodium acetate, 1% dialysed BSA), and resuspended in binding buffer to determine the cell number. 5 pM ^125 I-IGF-I (Amersham) was preincubated with either 10 or 100 nM IGFBP-5 alone or in combination with 33 μM of the different compounds 1,2,3,4B and 4C at 4° C. for 1 h. Then 400 μl of the cell suspension corresponding to 2×10^5 cells were added to give a total volume of 500 μl. After 12 h incubation at 4° C., cells were washed with binding buffer (at 4° C.). Free hormone was removed by repeated centrifugation and resuspension in the binding buffer. The 125 I radioactivity bound to the cells was determined in a gamma-counter.

Another assay deals with IGF-I (Homo sapiens, UniProt P05019). As to conditions: domain of IGFBP-5 residues 40-92; cited from earlier work.
Chain of IGF-I (P05019 49-118 limits assumed): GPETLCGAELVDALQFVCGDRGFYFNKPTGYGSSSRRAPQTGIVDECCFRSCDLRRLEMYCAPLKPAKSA
The target of the next assay is IGF-II (Homo sapiens, UniProt P01344). As to conditions: domain of IGFBP-5 residues 40-92; cited from earlier work.
Chain of IGF-II (P01344 25-91 limits assumed): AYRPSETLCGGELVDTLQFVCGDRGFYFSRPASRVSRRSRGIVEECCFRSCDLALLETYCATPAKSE
The subject of another assay is tumor growth. The note with it: 1 mg/dose daily in mice; cited from earlier work.
In a further assay the test system is MCF-7 cells. The note with it: in vitro; cited from earlier work.
For another assay, the system named is MDA-MB-435A cells. The note with it: in vitro; cited from earlier work.
A further assay deals with MDA-MB-231 cells. As to conditions: in vivo in mice; cited from earlier work.
[3] abbreviates: changes in chemical shift for the residue L81, read-out: KD.

Where two headings read alike, the source gives them in different places.

T2 sequence (P24593 21-272, one chain of several): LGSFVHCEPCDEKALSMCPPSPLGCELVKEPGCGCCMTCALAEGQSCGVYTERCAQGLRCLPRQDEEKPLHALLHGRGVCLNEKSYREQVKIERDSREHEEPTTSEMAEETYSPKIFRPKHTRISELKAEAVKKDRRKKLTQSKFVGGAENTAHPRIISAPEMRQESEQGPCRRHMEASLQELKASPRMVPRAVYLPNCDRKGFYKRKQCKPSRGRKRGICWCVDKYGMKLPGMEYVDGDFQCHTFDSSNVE

Turning to `O=C(N[C@@H](Cc1ccc(OP(=O)(O)O)cc1)C(=O)O)OCC1c2ccccc2-c2ccccc21` [Compound 2, Nα-FMOC-O-phospho-L-tyrosine], the Kd (as a rule, the constant that tells how readily two partners part at equilibrium) at IGFBP-5 (average over residues, read-out: ligand in DMSO KD) was found to be 1.71 ± 0.37 mM; at IGFBP-5 (average over residues, read-out: ligand in PBS KD), 2.21 ± 0.4 mM; at IGFBP-5 (setting [3]), 2.78 ± 0.3 mM; at IGFBP-5 (residue K91, read-out: ligand in DMSO KD), 2.42 ± 0.18 mM; on IGFBP-5 (residue K91, read-out: ligand in PBS KD), 2.12 ± 1.03 mM; on IGFBP-5 (residue L73, read-out: ligand in DMSO KD), 1.31 ± 0.17 mM. Further, the Kd amounted to 2.93 ± 1.41 mM on IGFBP-5 (residue L73, read-out: ligand in PBS KD); 1.64 ± 0.12 mM on IGFBP-5 (residue R87, read-out: ligand in DMSO KD); 2.36 ± 1 mM at IGFBP-5 (residue R87, read-out: ligand in PBS KD); 1.38 ± 0.1 mM at IGFBP-5 (residue S85, read-out: ligand in DMSO KD); 2.33 ± 0.94 mM on IGFBP-5 (residue S85, read-out: ligand in PBS KD); 1.58 ± 0.09 mM at IGFBP-5 (residue Y50, read-out: ligand in DMSO KD). Also, the Kd at IGFBP-5 (residue Y50, read-out: ligand in PBS KD) stood at 1.82 ± 0.95 mM; at IGFBP-5 (residue Y86, read-out: ligand in DMSO KD), 1.9 ± 0.17 mM; on IGFBP-5 (residue Y86, read-out: ligand in PBS KD), 1.72 ± 0.99 mM.

On to `CC(C)(C)Oc1ccc(C[C@H](NC(=O)OCC2c3ccccc3-c3ccccc32)C(=O)O)cc1` [Compound 2A, Nα-FMOC-O-tert-butyl-L-tyrosine], for which, at IGFBP-5 (setting [3]), the Kd was 0.718 ± 0.079 mM.

As to `O=C(N[C@@H](Cc1ccccc1)C(=O)O)OCC1c2ccccc2-c2ccccc21` [Compound 2B, Nα-FMOC-L-phenylalanine], the Kd on IGFBP-5 (setting [3]) came to 1.08 ± 0.507 mM.

For the molecule `O=C(Nc1ccc(S(=O)(=O)F)cc1)c1cc(N=Nc2cc(Cl)ccc2Cl)c2ccccc2c1O` [Compound 3, 4-(2,5-Dichlorophenylazo)-4′fluorosulfonyl-1-hydroxy-2-naphthanilide], the “autophosphorylation of IGF-R in presence of inactive complex of IGFBP-5 and IGF-I” value in [1] (50 uM compound 3, 100 nM IGFBP-5, 10 nM IGF-I) was “increased autophosphorylation of the receptor”. Also, the “release of IGF-I from the complex and binding of IGF-I to IGF-R expressing cells” value in [2] (33 μM compound) is reported as “release of IGF-I from the complex”.

On to “IGFBP-5: human insulin-like growth factor binding protein 5, SwissProt P 24593”, for which, in assay [1] (100 nM IGFBP-5, 10 nM IGF-I), the “autophosphorylation of IGF-R by IGF-I” value was “inhibited”. Further, the “binding of labeled IGF-I to NIH 3T3 cells” value in [2] is “inhibited”.

With “mini-IGFBP-5: domain of IGFBP-5 between residues 40-92 (GSALAEGQSCGVYTERCAQGLRCLPRQDEEKPLHALLHGRGVCLNEKSYREQVKI)”, the Kd was 37 nM in the assay with IGF-I and 6 nM with IGF-II.

B1: pegylated IGFBP-1: IGFBP-1 covalently coupled to polyethylene glycol (van den Berg) (conjugate, UniProt P08833 26-259, looked up)
Insulin-like growth …: APWQCAPCSAEKLALCPPVSASCSEVTRSAGCGCCPMCALPLGAACGVATARCARGLSCRALPGEQQPLHALTRGQGACVQESDASAPHAAEAGSPESPESTEITEEELLDNFHLMAPSEEDHSILWDAISTYDGSKALHVTNIKKWKEPCRIELYRVVESLAKAQETSGEEISKFYLPNCNKNGFYHSRQCETSMDGEAGLCWCVYPWNGKRIPGSPEIRGDPNCQIYFNVQN
modifications: PEG
On to B1, for which the “inhibition of tumor growth (response)” value in the assay with tumor growth is recorded as “only partial response”.

B2: IGFBP-1: human insulin-like growth factor binding protein 1, SwissProt P 08833 (protein, UniProt P08833 26-259, looked up)
Insulin-like growth …: APWQCAPCSAEKLALCPPVSASCSEVTRSAGCGCCPMCALPLGAACGVATARCARGLSCRALPGEQQPLHALTRGQGACVQESDASAPHAAEAGSPESPESTEITEEELLDNFHLMAPSEEDHSILWDAISTYDGSKALHVTNIKKWKEPCRIELYRVVESLAKAQETSGEEISKFYLPNCNKNGFYHSRQCETSMDGEAGLCWCVYPWNGKRIPGSPEIRGDPNCQIYFNVQN
For B2, in the assay with MCF-7 cells, the “growth of MCF-7 cells” value is “inhibits the growth”. Further, the “growth of MDA-MB-435A cells” value in the assay with MDA-MB-435A cells was “inhibits the growth”. The “growth of tumors formed MDA-MB-231 cells” value in the assay with MDA-MB-231 cells is listed as “inhibits the growth”.

These data come from patent US20050033035A1, “Mutants of igf binding proteins and methods of production of antagonists thereof” (priority 2001, published 2005).
